Results: publication doi:10.1101/2025.02.26.640323, “Aggregation-Dependent Epitope Sequence and Modification Fingerprints of Anti-Aβ Antibodies” (bioRxiv, 2025)
Entries after “also recorded” stand apart in the source; their conditions may differ.

Experiments:
[1] = tested on: amyloid precursor protein (APP770) residues 649–722; experiment: Peptide microarray epitope pre-screening (overlapping 15-mers); type: binding, human; settings: 0.5–1 μg/mL antibody
Experimental: Information regarding binding epitopes and /or immunogens for most of the tested Aβ-Abs has been published and is summarized in Table 1. However, the binding epitope information was derived from varying methodologies. To provide an initial side-by-side comparison we pre-screened all of the listed Aβ-Abs in array format using copies of peptide libraries and standard antibody concentrations of 0.5–1 μg/mL (Figure 1a). The library comprised the amyloid precursor protein (APP770) residues 649–722, corresponding to the canonical Aβ1–42 amino acid sequence with additional 23 amino terminal and 9 carboxy terminal residues. […] For optimal signal to noise ratios and ideal selectivity profiles on the microarrays, the Aβ-Ab concentrations were adjusted for 3D6, 82E1, 11H3, 80C2 and 7H3D6 (Figure 1 – figure- supplement 1) and (Appendix 1–7). […] Specifically, Donanemabbs, 2–48 and Aβ-pE3 were raised against AβpE3-x (Table 1) and were expected to show preference for Aβ peptides starting with a pE(3).
Figure 1. Microarray workflow and Aβ-Ab epitope pre-screening. (a) Schematic of the microarray workflow. The library comprised the amyloid precursor protein (APP) residues 649–722 (APP770 numbering), corresponding to Aβ residues −23 to 51, as a library of 15-mer peptides overlapping by 14AAs, copied in dozens, and probed for Aβ-Abs binding followed by analysis in MARTin. (b) The epitope screening binding data are summarized as a heatmap. Blue and red shades indicate the relative binding strength of the related arrayed peptides to the left and cognate Aβ-Ab on top. The blue – red scale is visualizing the normalized binding intensity for each antibody individually. The applied antibody concentrations ranged between 0.5–1 μg/mL.
The μSPOT assay was performed as previously described. […] Peptide arrays were synthesized using MultiPep RSi robot (CEM GmbH, Kamp-Lintford, Germany) on cellulose discs containing Fmoc-β-Ala linkers. Natural amino acid building blocks were purchased from IRIS (IRIS Biotech GmbH, Marktredwitz, Germany). Special building blocks employed in this study such as isomers, stereoisomers, phosphorylation and pyroglutamination […] modifications are listed here: Fmoc-L-Ser(PO(OBzl)OH)-OH (Iris – FAA1423), L-Pyroglutamic acid pentachlorophenyl ester (Novabiochem - 8.54203), Fmoc-L-Asp-OtBu (Iris – FAA1356), Fmoc-D-Asp-OtBu (Carbosolutions – CC05095) and Fmoc-D-Asp(tBu)-OH (Iris – FAA1309). Synthesis was carried out by deprotecting the Fmoc-group using 20% piperidine in dimethylformamide (DMF). Peptide chains were elongated using a coupling solution consisting of amino acids (0.5M) with oxyma (1M) and DIC (1M) in DMF (1:1:1). Coupling steps were carried out 3 times (30min), followed by capping (4% acetic anhydride in DMF). Discs were transferred into 96 deep-well plates for the work-up.

Aβ(−10–18) = experiment: Deep mutational scans of 18-meric Aβ peptides on microarray; type: binding, human
synthetic Aβ peptides = experiment: Peptide Bicine-Tris SDS-PAGE/Western blot; type: binding; settings: PVDF, 50 ng per peptide, 0.5 μg/mL antibody
[2] = tested on: synthetic Aβ peptide variants; experiment: Capillary isoelectric focusing (CIEF) immunoassay; type: binding
Experimental: Automated capillary isoelectric focusing immunoassays were performed with a Peggy-Sue system (ProteinSimple,San Jose, California, USA), essentially as previously described and [53].
In brief, synthetic Aβ peptide variants were separated by isoelectric focusing in microcapillaries followed by photochemical immobilization to the inner capillary walls and probing with the primary antibodies for 120 min. After 2 washes, the horseradish peroxidase conjugated secondary antibodies were loaded and incubated for 60 min. After two washing steps, a luminol/peroxide mix was loaded, and chemiluminescent signals were recorded. The data was analyzed with the Compass for SW software. The following secondary antibodies were used: Anti-human IgG Secondary HRP antibody (Protein Simple, catalog number 043–491), Goat-Anti-Mouse-HRP Secondary Antibody ProteinSimple, catalog number 040–655) and Peroxidase-conjugated Affini Pure Donkey Anti-Human IgG (H+L) (1:100 dilution) (Jackson ImmunoResearch Laboratories Inc., West Grove, PA, code number 709–035-149).

[3] = tested on: Aβ vascular and parenchymal deposits in AD brain sections; experiment: Immunohistochemistry on AD brain tissue with antibody pre-adsorption; design: species or system human; settings: 1 μg Donanemabbs with 2.5 μg peptide; human AD brain
Experimental: Immunohistochemistry was performed on 4-μm paraffin sections. In brief, brain sections were deparaffinized in Roticlear (Carl Roth, Karlsruhe, Germany) and rehydrated in a descending series of ethanol. Activity of endogenous peroxidases was blocked by incubation in 0.3% H2O2 in PBS for 30 min. […] Antibodies and peptides were incubated on a rotator for 3 h at room temperature and reaction tubes were centrifuged at 13000 rpm for 5 min at the end of the incubation period. Control conditions included antibodies in 0.01 M PBS including 10% FCS without synthetic peptides. Adjacent paraffin-embedded sections from a human AD case were incubated overnight with the supernatants and sections were washed with 0.01 M PBS including 0.1 % Tergitol. For detection, biotinylated anti-human antibodies (6 μg/ml, Jackson ImmunoResearch, West Grove, Pennsylvania, USA #109-065-003) were used and staining was visualized with the ABC method with a Vectastain kit (Vector Laboratories, Newark, California, USA), diaminobenzidine as a chromogen and counterstaining with hematoxylin.

## Donanemabbs: humanized monoclonal, biosimilar of Donanemab, Proteogenix (#PX-TA1549)
[1]; Aβ residue numbers, 15-mer peptides overlapping by 14AAs on cellulose conjugates, chemiluminescence
  Array: epitope identified in this study on microarrays: 3–10
[1]; unmodified Aβ-related 15-mers, generic pre-screening conditions
  binding in epitope pre-screening: detected Aβ(3-x) starting with non-cyclized Glu (3), Aβ(−3-x) as well as several other N-terminally elongated Aβ-related peptides and Aβ1-x; also recorded: clear signals with AβpE3-x and several other Aβ related peptides starting N-terminally of Glu(3), including Aβ1-x
Aβ(−10–18); 18-mer deep mutational scan, core position if >50% of exchanges reduce binding by >50%
  core motif / main contacts / epitope: EFRHDSGY
Aβ(−10–18); Aβ1–18 deep mutational scan
  residue conservation at Asp(1) and Ala(2): Asp(1) and Ala(2) were not highly conserved
Synthetic Aβ peptides
  Aβ variants detected on Bicine-Tris SDS-PAGE/Western blot: detected AβpE3–40 and Aβ3–40
[2]
  signals with other N-terminal Aβ variants (CIEF and Bicine-Tris Western blot): no or very small signals
[2]; AβpE3–40 vs Aβ3–40
  preference of Aβ variant (CIEF and Bicine-Tris Western blot): clear preference for the Aβ variant starting with the cyclized N-terminal pE; also recorded: high preference for pyroglutamate bearing pEAβ3–40
[2]; Peggy Sue, chemiluminescence
  Aβ variants detected on CIEF-immunoassay: detected AβpE3–40 and Aβ3–40
[3]
  IHC immunoreactivity after pre-adsorption with Aβ1–40: not suppressed
  IHC immunoreactivity after pre-adsorption with Aβ3–40: not suppressed
  IHC immunoreactivity after pre-adsorption with AβpE3–40: efficiently suppressed; also recorded: effectively attenuated
